Reference: patent US20200352163A1, “ANTIMICROBIAL MIXTURE CONTAINING 4-(3-ETHOXY-4-HYDROXYPHENYL)BUTAN-2-ONE AND AN AROMATIC ALCOHOL, AND COSMETIC COMPOSITION CONTAINING SAME” (L'OREAL, priority 2017, published 2020)
Values belong to the compound of their own block, whether it stands above or below them.

Tests used:
Assay in all cases: MIC / FIC synergy test in 96-well microplate, optical density at 620 nm
Assay type in all cases: cell-based
Conditions in all cases: for microbial growth percentage: weight %
[1] = system: Aspergillus niger ATCC 6275
Source text: (§1) FIC Index=(MIC of A with B/MIC of A)+(MIC of B with A/MIC of B)
(§2) with: • MIC of A with B: minimum concentration of product A in the combination A+B which makes it possible to obtain an inhibitory effect; • MIC of B with A: minimum concentration of product B in the combination A+B which makes it possible to obtain an inhibitory effect; • MIC of A: minimum inhibitory concentration of product A alone; • MIC of B: minimum inhibitory concentration of product B alone.
(§3) As regards the combinations tested, MIC of A with B and MIC of B with A are the respective concentrations of A and of B in the combinations which make it possible to obtain a microbial growth percentage of less than or equal to 20%.
(§4) When the FIC index value is less than or equal to 1, it is considered that the combination of test compounds has a synergistic effect.
The microbial strain Aspergillus niger ATCC 6275, and a double-concentration Sabouraud broth liquid culture medium supplemented with polyoxyethylenated (20 OE) sorbitan monopalmitate (Tween 40 from Croda) and Phytagel© BioReagent were used (i.e. a mixture of 5 g of Phytagel+0.6 g Tween 40+60 g of Sabouraud broth).
(§5) A 96-well microplate and an incubation temprature of 32.5° C. are used.
(§6) The incubation time of the microplate is: • from 18 to 24 h under aerobic conditions for Candida albicans ATCC 10231, Pseudomonas aeruginosa ATCC 9027 and Staphylococcus aureus ATCC 6538; • from 24 to 30 h under aerobic conditions for microbial Aspergillus niger ATCC 6275; • from 24 to 48 h under aerobic conditions for Enterococcus faecalis ATCC 33186.
(§7) A 10% (weight/volume) stock solution was prepared by mixing 1 g of compound in 9 ml of aqueous 1‰ agar solution. Successive dilutions were made with the 1‰ agar solution.
(§8) 50 μl of each of the daughter solutions obtained containing compound A or B are added to the microplate wells. 100 μl of Sabouraud liquid nutrient broth inoculated at double concentration with the Aspergillus niger strain and 50 μl of aqueous 1‰ agar solution are also added thereto.
(§9) 50 μl of each of the daughter solutions obtained containing compound A and 50 μl of each of the daughter solutions obtained containing compound B are added to the microplate wells. 100 μl of Sabouraud liquid nutrient broth inoculated at double concentration with the strain Aspergillus niger are also added thereto.
(§10) A positive microbial growth control was also prepared. The positive microbial growth control corresponds to a mixture of 100 μl of aqueous 1‰ agar solution with 100 μl of Sabouraud liquid nutrient broth inoculated at double concentration with the strain Aspergillus niger in the absence of compounds A and B.
(§11) An absorbance control was performed in parallel on compounds A and B alone. This control corresponds to 100 μl of double concentration sterile Sabouraud liquid nutrient broth+100 μl of double concentration compound A or B.
(§12) In the three cases (absorbance control, growth control and test), the final volume present in each of the microplate wells is 200 μl.
In the two cases (test and control), the inoculum represents the concentration of the Aspergillus niger strain present in the final volume of the wells (200 μl) and is between 2 and 6×10^5 cfu/ml of Aspergillus niger.

[2] = system: Enterococcus faecalis ATCC 33186
Source text: as §1, §2, §3, §4
The microbial strain Enterococcus faecalis ATCC 33186 and a double-concentration BHI (Brain Heart Infusion) broth liquid culture medium were used.
as §5, §6, §7, §8, §9, §10, §11, §12
(§13) The test as described above (tests, absorbance control and growth control) was performed again to test the combination A+B on the following strains Enterococcus faecalis, Staphylococcus aureus, Pseudomonas aeruginosa, Candida albicans.

[3] = system: Staphylococcus aureus ATCC 6538
Source text: as §1, §2, §3, §4
The microbial strain Staphylococcus aureus ATCC 6538 and a double-concentration nutrient broth liquid culture medium were used.
as §5, §6, §7, §8, §9, §10, §11, §12, §13

[4] = system: Pseudomonas aeruginosa ATCC 9027
Source text: as §1, §2, §3, §4
The microbial strain Pseudomonas aeruginosa ATCC 9027 and a double-concentration nutrient broth liquid culture medium were used.
as §5, §6, §7, §8, §9, §10, §11, §12, §13

[5] = system: Candida albicans ATCC 10231
Source text: as §1, §2, §3, §4
The microbial strain Candida albicans ATCC 10231 and a double-concentration Sabouraud broth liquid culture medium were used.
as §5, §6, §7, §8, §9, §10, §11, §12, §13

[6] = Example 1, first concentration giving growth <= 20%
[7] = Example 5, first concentration giving growth <= 20%
[8] = first concentration giving growth <= 20%

Compound: OCCOc1ccccc1 [B1, 2-phenoxyethanol]
microbial growth percentage ([1]; 0.0625 B1 alone): 95%
microbial growth percentage ([1]; 0.125 B1 alone): 89%
microbial growth percentage ([1]; 0.25 B1 alone): 8%
% MIC of B1 alone [1, 8]: 0.25%
microbial growth percentage ([2]; 0.0625 B1 alone): 87%
microbial growth percentage ([2]; 0.125 B1 alone): 86%
microbial growth percentage ([2]; 0.25 B1 alone): 84%
microbial growth percentage ([2]; 0.5 B1 alone): 80%
microbial growth percentage ([2]; 1 B1 alone): 6%
% MIC of B1 alone [2, 8]: 1%
microbial growth percentage ([3]; 0.0625 B1 alone): 66%
microbial growth percentage ([3]; 0.125 B1 alone): 73%
microbial growth percentage ([3]; 0.25 B1 alone): 58%
microbial growth percentage ([3]; 0.5 B1 alone): 1%
% MIC of B1 alone [3, 8]: 0.5%
microbial growth percentage ([4]; 0.0625 B1 alone): 45%
microbial growth percentage ([4]; 0.125 B1 alone): 39%
microbial growth percentage ([4]; 0.25 B1 alone): 39%
microbial growth percentage ([4]; 0.5 B1 alone): 0%
microbial growth percentage ([4]; 1 B1 alone): 0%
% MIC of B1 alone [4, 8]: 0.5%
microbial growth percentage ([5]; 0.0625 B1 alone): 44%
microbial growth percentage ([5]; 0.125 B1 alone): 22%
microbial growth percentage ([5]; 0.25 B1 alone): 2%
% MIC of B1 alone [5, 8]: 0.25%

Compound: OCCc1ccccc1 [B2, phenylethyl alcohol]
microbial growth percentage ([5]; 0.125 B2 alone): 41%
microbial growth percentage ([5]; 0.25 B2 alone): 7%
MIC B2 ([5]; B2 alone, first concentration giving growth <= 20%): 0.25%

Compound: OCc1ccccc1 [B3, benzyl alcohol]
microbial growth percentage ([1]; 0.0125 B3 alone): 94%
microbial growth percentage ([1]; 0.25 B3 alone): 31%
microbial growth percentage ([1]; 0.5 B3 alone): 1%
% MIC of B3 alone [1, 8]: 0.5%
microbial growth percentage ([2]; 0.25 B3 alone): 77%
microbial growth percentage ([2]; 0.5 B3 alone): 30%
microbial growth percentage ([2]; 1 B3 alone): 3%
% MIC of B3 alone [2, 8]: 1%

Second part, led by results:

% MIC of A alone [1, 6]: 0.25%
% MIC of A alone [1, 7]: 0.25%
% MIC of A alone [2, 6]: 1%
% MIC of A alone [2, 7]: 1%
% MIC of A alone ([2]; Example 6): 1%
% MIC of A alone [3, 8]: 0.5%
% MIC of A alone [4, 8]: 1%
% MIC A ([5]; A alone, Example 3, first concentration giving growth <= 20%): 0.2%
% MIC of A alone [5, 6]: 0.1%
% MIC of A alone ([5]; Example 6, first concentration giving growth <= 20%): 0.2%
Compound: CCOc1cc(CCC(C)=O)ccc1O [A, 4-(3-ethoxy-4-hydroxyphenyl)butan-2-one]
microbial growth percentage ([1]; 0.0625 A alone, Example 1): 85%
microbial growth percentage ([1]; 0.0625 A alone, Example 5): 86%
microbial growth percentage ([1]; 0.125 A alone, Example 1): 47%
microbial growth percentage ([1]; 0.125 A alone, Example 5): 41%
microbial growth percentage ([1]; 0.25 A alone, Example 1): 7%
microbial growth percentage ([1]; 0.25 A alone, Example 5): 6%
microbial growth percentage ([2]; 0.0625 A alone, Example 1): 82%
microbial growth percentage ([2]; 0.0625 A alone, Example 5): 78%
microbial growth percentage ([2]; 0.0625 A alone, Example 6): 42%
microbial growth percentage ([2]; 0.125 A alone, Example 1): 89%
microbial growth percentage ([2]; 0.125 A alone, Example 5): 86%
microbial growth percentage ([2]; 0.125 A alone, Example 6): 42%
microbial growth percentage ([2]; 0.25 A alone, Example 1): 89%
microbial growth percentage ([2]; 0.25 A alone, Example 5): 92%
microbial growth percentage ([2]; 0.25 A alone, Example 6): 33%
microbial growth percentage ([2]; 0.5 A alone, Example 1): 75%
microbial growth percentage ([2]; 0.5 A alone, Example 5): 72%
microbial growth percentage ([2]; 0.5 A alone, Example 6): 34%
microbial growth percentage ([2]; 1 A alone, Example 1): 13%
microbial growth percentage ([2]; 1 A alone, Example 5): 4%
microbial growth percentage ([2]; 1 A alone, Example 6): 24%
microbial growth percentage ([3]; 0.0625 A alone): 71%
microbial growth percentage ([3]; 0.125 A alone): 57%
microbial growth percentage ([3]; 0.25 A alone): 52%
microbial growth percentage ([3]; 0.5 A alone): 1%
microbial growth percentage ([4]; 0.0625 A alone): 49%
microbial growth percentage ([4]; 0.125 A alone): 82%
microbial growth percentage ([4]; 0.25 A alone): 116%
microbial growth percentage ([4]; 0.5 A alone): 67%
microbial growth percentage ([4]; 1 A alone): −4%
microbial growth percentage ([5]; 0.025 A alone, Example 1): 48%
microbial growth percentage ([5]; 0.025 A alone, Example 3): 85%
microbial growth percentage ([5]; 0.025 A alone, Example 6): 69%
microbial growth percentage ([5]; 0.05 A alone, Example 1): 29%
microbial growth percentage ([5]; 0.05 A alone, Example 3): 64%
microbial growth percentage ([5]; 0.05 A alone, Example 6): 63%
microbial growth percentage ([5]; 0.1 A alone, Example 1): 16%
microbial growth percentage ([5]; 0.1 A alone, Example 3): 25%
microbial growth percentage ([5]; 0.1 A alone, Example 6): 38%
microbial growth percentage ([5]; 0.2 A alone, Example 3): 3%
microbial growth percentage ([5]; 0.2 A alone, Example 6): 4%

% MIC of B4 alone [2]: 0.1%
% MIC of B4 alone [5, 8]: 0.04%
Compound: Cc1cc(O)ccc1C(C)C [B4, 4-isopropyl-3-methylphenol]
microbial growth percentage ([2]; 0.0125 B4 alone): 45%
microbial growth percentage ([2]; 0.025 B4 alone): 44%
microbial growth percentage ([2]; 0.05 B4 alone): 27%
microbial growth percentage ([2]; 0.1 B4 alone): 23%
microbial growth percentage ([5]; 0.0025 B4 alone): 87%
microbial growth percentage ([5]; 0.005 B4 alone): 82%
microbial growth percentage ([5]; 0.01 B4 alone): 73%
microbial growth percentage ([5]; 0.02 B4 alone): 35%
microbial growth percentage ([5]; 0.04 B4 alone): 1%
